# Laboratory results reported in patent publication US7186743B2, “Substituted pyrazolyl compounds for the treatment of inflammation” (Pharmacia Corporation, priority 2001, dated 2007).
# Structures can show the parent of a compound that is named as a salt. Where two headings read alike, the source gives them in different places.
# Molecular target: T1, IKK2 (Homo sapiens, UniProt O14920)
# T1 construct: made in house; host or cells: insect cells (baculovirus, pFastBac; SF9)
# T1 sequence (O14920 1-756): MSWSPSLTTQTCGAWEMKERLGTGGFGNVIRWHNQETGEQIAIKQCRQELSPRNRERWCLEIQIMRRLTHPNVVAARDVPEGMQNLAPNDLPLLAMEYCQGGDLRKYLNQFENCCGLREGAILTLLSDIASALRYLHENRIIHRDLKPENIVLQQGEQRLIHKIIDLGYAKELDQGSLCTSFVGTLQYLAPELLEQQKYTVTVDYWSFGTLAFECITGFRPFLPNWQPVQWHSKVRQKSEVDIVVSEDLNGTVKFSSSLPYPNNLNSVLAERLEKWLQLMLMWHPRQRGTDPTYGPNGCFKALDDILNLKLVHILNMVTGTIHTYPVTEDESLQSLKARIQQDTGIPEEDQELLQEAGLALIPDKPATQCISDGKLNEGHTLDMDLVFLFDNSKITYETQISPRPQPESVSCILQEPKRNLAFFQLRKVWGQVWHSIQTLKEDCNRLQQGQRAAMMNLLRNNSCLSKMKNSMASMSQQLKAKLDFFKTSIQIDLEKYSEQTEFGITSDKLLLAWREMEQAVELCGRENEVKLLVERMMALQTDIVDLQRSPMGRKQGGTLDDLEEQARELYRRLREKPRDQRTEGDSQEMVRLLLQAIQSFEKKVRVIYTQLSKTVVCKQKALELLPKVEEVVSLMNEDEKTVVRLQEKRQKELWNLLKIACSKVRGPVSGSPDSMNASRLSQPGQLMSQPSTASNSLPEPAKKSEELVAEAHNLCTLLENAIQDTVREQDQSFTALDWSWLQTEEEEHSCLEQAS
# Test: IKKβ Resin Enzyme Assay (IKK2 resin)
# Format: biochemical
# Summary of the method: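 Radiometric test: [γ-33P]ATP incorporation into a biotinylated IκBα peptide, 30 min at 25° C, pH 7.6 Hepes with MgCl2/MnCl2 and 1 μM cold ATP. Reaction is quenched with Dowex resin and the supernatant is counted. Kinase is FLAG-purified homodimeric recombinant human IKK2 from insect cells.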
# [1] = Table 14, read-out: IKK2 Resin IC50
# [2] = Table 6, read-out: IKK2 Resin IC 50
# [3] = Table 3, read-out: IKK Resin IC50
# [4] = Table 4, read-out: IKK2 Resin IC50
# [5] = Table 2, read-out: IKK Resin IC50
# [6] = Table 18, read-out: IKK2 Resin IC50
smiles,measurement,setting,value
"NC(=O)c1nn(-c2ccc(F)c(F)c2)c2c1CCc1ccc(NC(=O)c3ccncc3Cl)cc1-2 [Example 354, 8-[(3-chloroisonicotinoyl)amino]-1-(3,4-difluorophenyl)-4,5-dihydro-1H-benzo[g]indazole-3-carboxamide]",IC50,[1],≤ 1000 nM
"Cc1c(O)cccc1C(=O)Nc1ccc2c(c1)-c1c(c(C(N)=O)nn1-c1ccc(F)cc1)CC2 [Example 231, 1-(4-fluorophenyl)-8-[(3-hydroxy-2-methylbenzoyl)amino]-4,5-dihydro-1H-benzo[g]indazole-3-carboxamide]",IC50,[2],≤ 1000 nM
"CS(=O)(=O)c1ccc(-n2nc(C(N)=O)c3c2-c2cc(NC(=O)c4cc(Br)ccc4Cl)ccc2CC3)cc1 [Example 136, 8-[(5-bromo-2-chlorobenzoyl)amino]-1-[4-(methylsulfonyl)phenyl]-4,5-dihydro-1H-benzo[g]indazole-3-carboxamide]",IC50,[3],≤ 1000 nM
"NC(=O)c1nn(-c2ccc3c(c2)OCO3)c2c1CCc1ccc(NC(=O)c3cc([N+](=O)[O-])ccc3Cl)cc1-2 [Example 173, 1-(1,3-benzodioxol-5-yl)-8-[(2-chloro-5-nitrobenzoyl)amino]-4,5-dihydro-1H-benzo[g]indazole-3-carboxamide]",IC50,[4],≤ 1000 nM
"NC(=O)c1nn(-c2ccc3c(c2)OCO3)c2c1CCc1ccc(NC(=O)c3cc(F)c(F)cc3Cl)cc1-2 [Example 166, 1-(1,3-benzodioxol-5-yl)-8-[(2-chloro-4,5-difluorobenzoyl)amino]-4,5-dihydro-1H-benzo[g]indazole-3-carboxamide]",IC50,[4],≤ 1000 nM
"NC(=O)c1nn(-c2ccc(Br)cc2)c2c1CCc1ccc(NC(=O)c3ccccc3Cl)cc1-2 [Example 350, 1-(4-bromophenyl)-8-[(2-chlorobenzoyl)amino]-4,5-dihydro-1H-benzo[g]indazole-3-carboxamide]",IC50,[1],≤ 1000 nM
"CNS(=O)(=O)c1ccc(-n2nc(C(N)=O)c3c2-c2cc(NC(=O)c4ccccc4Cl)ccc2CC3)cc1 [Example 422, 8-[(2-chlorobenzoyl)amino]-1-{4-[(methylamino)sulfonyl]phenyl}-4,5-dihydro-1H-benzo[g]indazole-3-carboxamide]",IC50,read-out: IKK-2 resin IC50,≤ 1000 nM
"COc1cccc(CC(=O)Nc2ccc3c(c2)-c2c(c(C(N)=O)nn2-c2ccc(S(C)(=O)=O)cc2)CC3)c1 [Example 157, 8-{[(3-methoxyphenyl)acetyl]amino}-1-[4-(methylsulfonyl)phenyl]-4,5-dihydro-1H-benzo[g]indazole-3-carboxamide]",IC50,[3],≤ 1000 nM
"NC(=O)c1nn(-c2ccc3c(c2)OCO3)c2c1CCc1ccc(NC(=O)CNC3CCC3)cc1-2 [Example 445, 1-(1,3-benzodioxol-5-yl)-8-[(N-cyclobutylglycyl)amino]-4,5-dihydro-1H-benzo[g]indazole-3-carboxamidehydrochloride]",IC50,"Table 23, read-out: IKK2 Resin IC50",≤ 1000 nM
"C=Cc1ccc(-n2nc(C(N)=O)c3c2-c2cc(NC(=O)c4cccnc4Cl)ccc2CC3)cc1 [Example 389, 8-{[(2-chloropyridin-3-yl)carbonyl]amino}-1-(4-vinylphenyl)-4,5-dihydro-1H-benzo[g]indazole-3-carboxamide]",IC50,"Table 17, read-out: IKK2 Resin IC50",≤ 1000 nM
"CS(=O)(=O)c1ccc(-n2nc(C(N)=O)c3c2-c2cc(NC(=O)c4ccccc4Cl)ccc2CC3)cn1 [Example 368, 8-[(2-chlorobenzoyl)amino]-1-[6-(methylsulfonyl)pyridin-3-yl]-4,5-dihydro-1H-benzo[g]indazole-3-carboxamide]",IC50,read-out: IKK-2 resin IC50,≤ 1000 nM
"Cc1ccc(C(=O)Nc2ccc3c(c2)-c2c(c(C(N)=O)nn2-c2ccc(S(C)(=O)=O)cc2)CC3)c(Cl)n1 [Example 138, 8-{[(2-chloro-6-methylpyridin-3-yl)carbonyl]amino}-1-[4-(methylsulfonyl)phenyl]-4,5-dihydro-1H-benzo[g]indazole-3-carboxamide]",IC50,[3],≤ 1000 nM
"NC(=O)c1nn(-c2ccc3c(c2)OCO3)c2c1CCc1ccc(NC(=O)c3c(N)cccc3Cl)cc1-2 [Example 169, 8-[(2-amino-6-chlorobenzoyl)amino]-1-(1,3-benzodioxol-5-yl)-4,5-dihydro-1H-benzo[g]indazole-3-carboxamide]",IC50,[4],≤ 1000 nM
"CN(C)c1ccc(Cl)c(C(=O)Nc2ccc3c(c2)-c2c(c(C(N)=O)nn2-c2ccc(F)cc2)CC3)c1 [Example 237, 8-{[2-chloro-5-(dimethylamino)benzoyl]amino}-1-(4-fluorophenyl)-4,5-dihydro-1H-benzo[g]indazole-3-carboxamide]",IC50,[2],≤ 1000 nM
"NC(=O)c1nn(-c2ccccc2F)c2c1CCc1ccc(NC(=O)c3ccccc3Cl)cc1-2 [Example 341, 8-[(2-chlorobenzoyl)amino]-1-(2-fluorophenyl)-4,5-dihydro-1H-benzo[g]indazole-3-carboxamide]",IC50,[1],≤ 1000 nM
"CS(=O)(=O)c1ccc(-n2nc(C(N)=O)c3c2-c2cc(NC(=O)c4cccc(N)c4Cl)ccc2CC3)cc1 [Example 116, 8-[(3-amino-2-chlorobenzoyl)amino]-1-[4-(methylsulfonyl)phenyl]-4,5-dihydro-1H-benzo[g]indazole-3-carboxamide]",IC50,[5],≤ 1000 nM
"CS(=O)(=O)c1ccc(-n2nc(C(N)=O)c3c2-c2cc(NC(=O)c4ccc([N+](=O)[O-])cc4[N+](=O)[O-])ccc2CC3)cc1 [Example 155, 8-[(2,4-dinitrobenzoyl)animo]-1-[4-(methylsulfonyl)phenyl]-4,5-dihydro-1H-benzo[g]indazole-3-carboxamide]",IC50,[3],≤ 1000 nM
"CCS(=O)(=O)c1ccc(-n2nc(C(N)=O)c3c2-c2cc(NC(=O)c4cc(N)ccc4Cl)ccc2CC3)cc1 [Example 398, 8-[(5-amino-2-chlorobenzoyl)amino]-1-[4-(ethylsulfonyl)phenyl]-4,5-dihydro-1H-benzo[g]indazole-3-carboxamide]",IC50,[6],≤ 1000 nM
"NC(=O)c1nn(-c2ccc(OCc3ccccc3)cc2)c2c1CCc1ccc(NC(=O)c3ccccc3Cl)cc1-2 [Example 259, 1-[4-(benzyloxy)phenyl]-8-[(2-chlorobenzoyl)amino]-4,5-dihydro-1H-benzo[g]indazole-3-carboxamide]",IC50,"Table 8, read-out: IKK2 Resin IC50",> 10000 nM
"NC(=O)c1nn(-c2ccc3c(c2)OCO3)c2c1CCc1ccc(NC(=O)c3ccncc3)cc1-2 [Example 196, 1-(1,3-benzodioxol-5-yl)-8-(isonicotinoylamino)-4,5-dihydro-1H-benzo[g]indazole-3-carboxamide]",IC50,[4],≤ 1000 nM
"COc1ccc(Cl)c(C(=O)Nc2ccc3c(c2)-c2c(c(C(N)=O)nn2-c2ccc4c(c2)OCO4)CC3)c1 [Example 178, 1-(1,3-benzodioxol-5-yl)-8-[(2-chloro-5-methoxybenzoyl)amino]-4,5-dihydro-1H-benzo[g]indazole-3-carboxamide]",IC50,[4],≤ 1000 nM
"CCCS(=O)(=O)c1ccc(-n2nc(C(N)=O)c3c2-c2cc(NC(=O)c4ccccc4Cl)ccc2CC3)cc1 [Example 400, 8-[(2-chlorobenzoyl)amino]-1-[4-(propylsulfonyl)phenyl]-4,5-dihydro-1H-benzo[g]indazole-3-carboxamide]",IC50,[6],≤ 1000 nM
"CS(=O)(=O)c1ccc(-n2nc(C(N)=O)c3c2-c2cc(NC(=O)c4cc(F)c(F)cc4[N+](=O)[O-])ccc2CC3)cc1 [Example 149, 8-[(4,5-difluoro-2-nitrobenzoyl)amino]-1-[4-(methylsulfonyl)phenyl]-4,5-dihydro-1H-benzo[g]indazole-3-carboxamide]",IC50,[3],≤ 1000 nM
"NC(=O)c1nn(-c2cccc(F)c2)c2c1CCc1ccc(NC(=O)c3ccccc3Cl)cc1-2 [Example 339, 8-[(2-chlorobenzoyl)amino]-1-(3-fluorophenyl)-4,5-dihydro-1H-benzo[g]indazole-3-carboxamide]",IC50,[1],≤ 1000 nM
"CS(=O)(=O)c1ccc(-n2nc(C(N)=O)c3c2-c2cc(NC(=O)c4cc5c(cc4Cl)OCO5)ccc2CC3)cc1 [Example 125, 8-{[(6-chloro-1,3-benzodioxol-5-yl)carbonyl]amino}-1-[4-(methylsulfonyl)phenyl]-4,5-dihydro-1H-benzo[g]indazole-3-carboxamide]",IC50,[5],≤ 1000 nM
"CCNC(=O)/C=C/c1ccc(-n2nc(C(N)=O)c3c2-c2cc(NC(=O)c4ccccc4Cl)ccc2CC3)cc1 [Example 312, 8-[(2-chlorobenzoyl)amino]-1-{4-[(1E)-3-(ethylamino)-3-oxoprop-1-enyl]phenyl)-4,5-dihydro-1H-benzo[g]indazole-3-carboxamidee]",IC50,"Table 12, read-out: IKK2 Resin IC50",≤ 1000 nM
"CN(C)CCNC(=O)c1ccc(-n2nc(C(N)=O)c3c2-c2cc(NC(=O)c4ccccc4Cl)ccc2CC3)cc1 [Example 380, 8-[(2-chlorobenzoyl)amino]-1-[4-({[2-(dimethylamino)ethyl]amino}carbonyl)phenyl]-4,5-dihydro-1H-benzo[g]indazole-3-carboxamide hydrochloride]",IC50,"Table 15, read-out: IKK2 Resin IC50",1000 to 10000 nM
